# Measurements: patent US20260028364A1, “CATIONIC CHROMENONES AND THEIR USE IN ONCOLOGY” (FLORATEK PHARMA S.A., priority 2022, published 2026)
# Legend:
# JAK/STAT = assay: SelectScreen CellSensor pathway inhibition, JAK/STAT; format: cell-based; conditions: Homo sapiens; ISRE-bla Jurkat, stimulus IFN-alpha
# Method: (§1) Inhibition of various cellular pathways known to be involved in malignancy was tested using the SelectScreen Cell-based Pathway Profiling GeneBLAzer™ cell signaling pathway specific CellSensor™ cell lines ((Thermo Fisher). The assay is based on a beta-lactamase reporter activity which is modulated and can be measured quantitatively and selectively with the LiveBLAzer™-FRET B/G Loading Substrate. SelectScreen Cell-Based Pathway Profiling Service uses XLfit from IDBS. The dose response curve is curve fit to model number 205 (sigmoidal dose-response model). Custom logic was built by Thermo Fisher for the data analysis tool to address the different compound characteristics that can be observed with functional assays.
# JAK/STAT—ISRE-bla HEK 293T—Inhibitor Screen, Activated by IFN-Alpha
# ISRE-bla HEK 293T cells are thawed and resuspended in Assay Media (OPTI-MEM, 0.5% dialyzed FBS, 0.1 mM NEAA, 1 mM Sodium Pyruvate, 100 U/mL/[…] Pen/Strep) to a concentration of 625,000 cells/mL. 32 μL of cell suspension is added to each well of a 384-well TC-Treated assay plate. Cells in Assay Media are incubated for 16-24 hours in the plate at 37° C./5% CO2 in a humidified incubator. […] 4 μL of 10× control activator IFN-alpha at the pre-determined EC80 concentration is added to wells containing the control inhibitor or compounds. […] The plate is read on a fluorescence plate reader.
# MIA-PaCa-2 = assay: CellTiter-Glo cell viability, MIA-PaCa-2; format: cell-based; conditions: Homo sapiens; MIA-PaCa-2 cells, 72 h with compound
# Method: (§2) Antitumor activity against a panel of cancer cell lines Antitumor activity of the compounds was assessed by using the CellTiter-Glow® Luminescent Cell Viability assay (Promega #G7572) according to the manufacturer's instructions. The compounds were tested at 5 or 6 concentrations in 1:2 dilution increments (highest concentration 10 µM) in triplicate well conditions.
# (§3) Tumor cells were grown at 37° C. in a humidified atmosphere with 5% CO2 in RPMI 1640 or DMEM medium, supplemented with 10% (v/v) fetal calf serum and 50 μg/ml gentamicin for up to 20 passages, and were passaged once or twice weekly. Cells were harvested using TrypLE or PBS buffer containing 1 mM EDTA, and the percentage of viable cells is determined using a cell counter.
# (§4) Cells were harvested from exponential phase cultures, counted and plated in 96 well flat-bottom microtiter plates at a cell density depending on the cell line's growth rate (4,000-20,000 cells/well depending on the cell line's growth rate) in RPMI 1640 or DMEM medium supplemented with 10% (v/v) fetal calf serum and 50 μg/ml gentamicin (140 μl/well). Cultures were incubated at 37° C. and 5% CO2 in a humidified atmosphere. After 24 h, 10 μl of test compounds or control medium are added, and left on the cells for another 72 h. Compounds were serially diluted in DMSO, transferred in cell culture medium, and added to the assay plates. The DMSO concentration was kept constant at <0.2% v/v across the assay plate. Viability of cells was quantified by the CellTiter-Glow® Luminescent Cell Viability assay (Promega #G7572). Luminescence was measured with the microplate luminometer (En Vision Perkin Elmer).
# (§5) Sigmoidal concentration-response curves were fitted to the data points (test-versus-control, T/C values) obtained for each tumor model using Graph Pad prism 5.02 software. IC50 values are reported as absolute IC50 values, being the concentration of test compound at the intersection of the concentration-response curves with T/C=50%.
# SK-Mel-5 = assay: CellTiter-Glo cell viability, SK-Mel-5; format: cell-based; conditions: Homo sapiens; SK-Mel-5 cells, 72 h with compound
# Method: as §2, §3, §4, §5
# A-673 = assay: CellTiter-Glo cell viability, A-673; format: cell-based; conditions: Homo sapiens, A673; A-673 cells, 72 h with compound
# Method: as §2, §3, §4, §5
# MAPK/MEK/B-raf = assay: SelectScreen CellSensor pathway inhibition, MAPK/MEK/B-raf; format: cell-based; conditions: Homo sapiens, A-375; AP1-bla A375, no stimulus (constitutively activated)
# Method: as §1
# MAPK/MEK/B-raf—AP1-bla A375—Inhibitor Screen, Constitutively Activated
# AP1-bla A375 cells are thawed and resuspended in Assay Media (OPTI-MEM, 0.5% dialyzed FBS, 0.1 mM NEAA, 1 mM Sodium Pyruvate, 100 U/mL/[…] Pen/Strep) to a concentration of 312,500 cells/mL. 4 μL of a 10×serial dilution of Rafi Kinase Inhibitor (control inhibitor starting concentration, 10,000 nM) or compounds are added to appropriate wells of a TC-Treated assay plate. 32 μL of cell suspension (10,000 cells) is added to the wells. 4 μL of Assay Media is added to all wells to bring the final assay volume to 40 μL. […] The plate is read on a fluorescence plate reader.
# [1] = system: A2058 melanoma tumor cells; assay: In vivo tumour inhibition, A2058 melanoma xenograft; design: species or system Balb-c/nude mouse
# Method: The A2058 tumor cells were maintained in vitro in DMEM medium supplemented with 10% fetal bovine serum and 1% Anti-Anti at 37° C. in an atmosphere of 5% CO2 in air. The tumor cells were routinely subcultured twice weekly.
# Each Balb-c/nude mouse was inoculated subcutaneously at the right flank with A2058 melanoma tumor cells (5×10^6+Matrigel) in 0.2 ml of PBS for tumor development. 10 animals per group were randomized when the average tumor volume reached 74 mm^3. Test compounds were prepared as DMSO stocks and diluted in the injection vehicle before administration. The treatment was administered every other day (QOD) as a peritumoral injection. Vehicle composition was 4% DMSO, 5% ethanol, 20% PEG200, 71% saline. Dosing volume for all groups: 5 mL/kg.
# Tumor volume was measured twice weekly in two dimensions using a caliper, and the volume was expressed in mm^3 using the formula: V=0.5a×b^2 where a and b are the long and short diameters of the tumor, respectively. The tumor size was then used for calculations of T/C value: The T/C value (in percent) is an indication of antitumor effectiveness; T and Care the mean volumes of the treated and control groups, respectively, on a given day.
# One-way ANOVA was performed to compare tumor volume among treated groups and vehicle group, all data were analyzed using GraphPad Prism 5.0. p<0.05 was considered to be statistically significant.
# [2] = 16 mg/kg peritumoral QOD, 6 injections, day 20 after treatment start
smiles,measurement,setting,value
"COc1ccc2c(=O)c(-c3ccc(CCCC[P+](c4ccccc4)(c4ccccc4)c4ccccc4)cc3)coc2c1OC.[Br-] [SND470, (4-(4-(7,8-Dimethoxy-4-oxo-4H-chromen-3-yl)phenyl)butyl)triphenylphosphonium bromide]",IC50,JAK/STAT,360 nM
same,IC50,MIA-PaCa-2,22 nM
same,IC50,SK-Mel-5,470 nM
same,IC50,A-673,200 nM
same,IC50,MAPK/MEK/B-raf,2700 nM
same,T/C,[1]; [2],39.2%
same,TGI,[1]; [2],62.8%
same,Tumor Volume,"[1]; 16 mg/kg peritumoral QOD, 6 injections, day 20 after treatment start, mean ± SEM",886 ± 127 mm^3
same,activity in inhibiting A2058 melanoma cell line in vivo,[1]; nude mouse xenograft model of melanoma,significant activity
